Assay results published in patent US12384775B2, “Pyrimid-2-yl-pyrazole compounds as IRAK inhibitors” (Rigel Pharmaceuticals, Inc., priority 2022, dated 2025).

Columns and labels:
IL23p19 in THP-1 Cells = assay: LPS induced IL23p19 in THP-1 cells (IFNγ primed), ELISA; type: cell-based; conditions: Homo sapiens; for IC50: THP-1, LPS, read-out: Cell Assays IC50, IL-23 (LPS, THP-1)
Procedure: On day 1, 50K/well THP-1 cells were seeded and primed with IFNγ (50 ng/mL) in 384-well plates for about 18 hours in RPMI media with 10% FBS. On day 2, the compound was serially diluted in DMSO from 5 mM in 3-fold dilutions, and then diluted 1:125 in RPMI media with 10% FBS. 50 μL/well 2× compound was added to 50 μL/well THP-1 cells (with IFNγ primed) in duplicate in 384 well tissue culture plates. The cells were pre-incubated with compound for 1 hour at 37° C., 5% CO2 before addition of 10 μL/well 11×LPS to give a final concentration of 1 μg/mL LPS. Day 3, after stimulation for 18 hours at 37° C., 5% CO2, the assay plate was centrifuged and 70 μL/well supernatant was harvested. IL-23p19 protein in 70 μL/well of supernatant was measured by sandwich ELISA, and 25 μl/well Cell Titer Glo reagent was added to the remaining cells to measure compound toxicity.
Maxisorp immuno ELISA plates were pre-coated with 25 μL/well of anti-IL-23p19 capture antibody (2.5 ug/mL) in PBS overnight at room temperature. After washing with 1×PBST, the plates were blocked using 100 μL/well of 1% BSA in PBS for 2 hours at room temperature. The plates were washed three times with 1×PBST and 70 μL/well supernatant were added. The plates were incubated at room temperature for 2 hours with shaking and washed three times with 1×PBST. 25 μL/well of biotin labeled anti-IL-12 (p40/p70) detection antibody (100 ng/mL) in PBS with 1% BSA was added and the plates were incubated at room temperature for 2 hours with shaking. After washing three times with 1× PBST, 25 μL/well of streptavidin-HRP (1:200) in PBS with 1% BSA was added and the plates were incubated at room temperature for 20 minutes with shaking. The plates were washed three times with 1× PBST and 25 μL/well of Super Signal ELISA Pico Chemiluminescent Substrate were added. The plates were read with a luminometer, and the chemiluminescence values were entered into Athena (Rigel) for curve fitting, EC50 calculation, and database storage.
THP-1 cells (100K in 100 μL/well) were primed with 25 ng/mL IFN-γ for 18 hours at 37° C., 5% CO2. Compound was serially diluted in DMSO from 2.5 mM in 4-fold dilutions, and then diluted 1:125 in RPMI 1640 complete media with 10% FBS. 100 μL/well 2× compound was mixed with the 100 μL/well IFN-7 primed THP-1 in 96 well flat-bottom white tissue culture plates. The cells were pre-incubated with compound for 1 hour at 37° C., 5% CO2 and before addition of 10 μL/well 21×LPS to give a final concentration of […] for LPS. The cells were stimulated with LPS for 18 hours at 37° C., 5% CO2. After centrifugation, 100 μL/well supernatant was extracted by using a multichannel pipette. IL-23p19 or TNF-α protein in the supernatant were measured by sandwich ELISA. The remaining IFN-7 primed THP-1 cell pellets were used to perform cell viability assays to determine compound cell toxicity. The plates were read with a luminometer, and the chemiluminescence values were entered into Athena (Rigel) for curve fitting, EC50 calculation, and database storage.
Maxisorp immuno ELISA plates were pre-coated with 100 μL/well of anti-IL-23p19 capture antibody (2.4 μg/mL) in PBS overnight at room temperature. After washing with 1×PBST, the plates were blocked using 300 μL/well of 1% BSA in PBS for 2 hours at room temperature. The plates were washed three times with 1×PBST and 100 μL/well supernatant was added. The plates were incubated at room temperature for 2 hours with shaking. The plates were washed three times with 1×PBST and 100 μL/well of biotin anti-human IL-12 (p40/70) detection antibody (10 ng/mL) in PBS with 0.1% BSA were added. The plates were incubated at room temperature for 2 hours with shaking. The plates were washed three times with 1×PBST and 100 μL/well streptavidin-HRP (1:200) in PBS with 0.1% BSA was added. The plates were incubated at room temperature for 20 minutes with shaking. […]

IRAK4 = target: T1, IRAK4 (Homo sapiens, UniProt Q9NWZ3); assay: IRAK4 ADP-Glo kinase assay; type: biochemical; conditions: for IC50: n >= 3
T1 construct: purchased Signalchem I12-10G-20
T1 sequence (Q9NWZ3 1-460): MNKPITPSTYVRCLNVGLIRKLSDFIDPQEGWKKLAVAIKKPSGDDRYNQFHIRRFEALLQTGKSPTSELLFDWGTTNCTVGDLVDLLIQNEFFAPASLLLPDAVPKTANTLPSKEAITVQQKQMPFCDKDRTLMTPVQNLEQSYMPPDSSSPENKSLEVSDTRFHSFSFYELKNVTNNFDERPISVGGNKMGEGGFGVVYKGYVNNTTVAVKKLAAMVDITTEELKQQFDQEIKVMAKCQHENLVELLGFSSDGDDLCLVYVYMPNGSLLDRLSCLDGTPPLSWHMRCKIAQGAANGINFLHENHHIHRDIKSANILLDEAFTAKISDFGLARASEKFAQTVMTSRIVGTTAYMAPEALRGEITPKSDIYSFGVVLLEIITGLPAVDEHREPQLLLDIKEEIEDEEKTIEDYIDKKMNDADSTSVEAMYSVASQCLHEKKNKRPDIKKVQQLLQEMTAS
Procedure: The ADP-Glo™ reagents were thawed at ambient temperature. The Kinase Detection Reagent was prepared by mixing kinase detection buffer with the lyophilized kinase detection substrate, and set aside.
A stock volume of 5× Reaction Kinase Buffer was made with a final concentration of 100 mM MgCl2, 200 mM Tris-HCl, and 0.5 mg/ml of BSA, in distilled H2O with a final pH7.4. A 2× working stock volume of Reaction Kinase Buffer was made containing a final concentration of 100 μM DTT.
The components of IRAK4 Enzyme were thawed on ice. Diluted IRAK4 in 1× Kinase Reaction Buffer (diluted from 2× buffer) was prepared at […]. A 250 μM working stock ATP Assay Solution was prepared in 1× Kinase Reaction Buffer (diluted from 2× buffer).
The compound was diluted in DMSO from 250 µM in 4-fold series dilutions for 8 points. Then diluted 1:5 in 2× Reaction Buffer in a 96 well plate. 1.0 μl was transferred to a 384 well plate in duplicate. […] 1 μl of 1 mg/ml stock solution of MBP substrate was added NOTE: MBP can be combined with ATP mix with equal volume and then added at 2 μl/well. Final reaction volume was 5 μl. The plate was centrifuged and the reaction mixture was incubated at room temperature for 60 minutes or at 30° C. for 30 minutes.
The reaction was terminated and the remaining ATP was depleted by adding 5 μl of ADP-Glo™ Reagent. The 384-well plate was centrifuged and then the reaction mixture was incubated for another 40 minutes at ambient temperature.
10 μl of the Kinase Detection Reagent was added. The plate was centrifuged and then the reaction mixture was incubated for another 30 minutes at ambient temperature.
The 384-well reaction plate was read using the WALLAC plate reader (Luminescence 0.1s).

SMILES | IC50 (IL23p19 in THP-1 Cells) | IC50 (IRAK4) | EC50 (IL23p19 in THP-1 Cells; THP-1 cells IFNγ primed, LPS 1 μg/mL, 18 h, read-out: IL23-p19 ELISA, THP1-IFNy, LPS, 10 pt EC50) | EC50 (IRAK4; read-out: IRAK4 ADP-Glo Kinase, 8 pt EC50)
CCO[C@H]1CC[C@H](n2cc(NC(=O)c3csc(-c4cn[nH]c4)n3)c(-c3nc(F)ccc3F)n2)CC1 [Comparison-1, reference compound] | 63 nM | 6 ± 6 nM |  | 
CCO[C@H]1CC[C@H](n2cc(NC(=O)c3csc(-c4cn[nH]c4)n3)c(-c3ncccn3)n2)CC1 [Compound I-1, N-(1-((1r,4r)-4-ethoxycyclohexyl)-3-(pyrimidin-2-yl)-1H-pyrazol-4-yl)-2-(1H-pyrazol-4-yl)thiazole-4-carboxamide] | 8 nM | 7 ± 4 nM | 8 nM | 7 nM
